Patent publication US6369261B1, “Compounds having activity as inhibitors of cytochrome P450RAI” (Allergan Sales, Inc., priority 2000, dated 2002)

Experiments:
[1] = tested on: SKH1-hrBR or hairless mouse; experiment: topical skin irritation test in hairless mice; assay type: in vivo; conditions: topical in acetone, once daily days 1 through 5, mean ±SD, range 0-21
Source text: Mice were housed individually throughout the dosing period.
Doses are disclosed as nmol/25 g.
The grading scale used is as follows:
Values can range from 0-9.
Values can range from 0-8.

RARβ = molecular target: T1, RARβ (Homo sapiens, UniProt P10826); experiment: ligand binding assay; conditions: last line of the stacked cell, read-out: RAR Kd β
T1 sequence (P10826 1-455): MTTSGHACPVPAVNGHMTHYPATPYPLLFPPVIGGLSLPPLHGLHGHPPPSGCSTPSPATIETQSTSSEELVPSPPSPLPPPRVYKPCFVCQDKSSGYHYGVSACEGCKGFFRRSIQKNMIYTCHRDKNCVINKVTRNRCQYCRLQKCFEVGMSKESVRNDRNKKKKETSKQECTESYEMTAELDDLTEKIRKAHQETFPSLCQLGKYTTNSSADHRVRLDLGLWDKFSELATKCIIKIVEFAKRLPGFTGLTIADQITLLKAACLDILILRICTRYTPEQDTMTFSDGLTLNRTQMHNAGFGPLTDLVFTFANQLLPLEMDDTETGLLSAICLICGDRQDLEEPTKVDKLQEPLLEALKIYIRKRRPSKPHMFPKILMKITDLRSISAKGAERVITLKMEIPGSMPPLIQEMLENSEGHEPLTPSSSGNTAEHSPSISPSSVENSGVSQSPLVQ
Source text: (§1) Assays described below measure the ability of a compound to bind to, and/or activate various retinoid receptor subtypes. When in these assays a compound binds to a given receptor subtype and activates the transcription of a reporter gene through that subtype, then the compound is considered an agonist of that receptor subtype. […] In the below described assays the ability of the compounds to bind to RARα, RARβ, RARγ, RXRα, RXRβ and RXRγ receptors, and the ability or inability of the compounds to activate transcription of a reporter gene through these receptor subtypes can be tested.
(§2) The results obtained in this assay are expressed in EC50 numbers, as they are also in the chimeric receptor transactivation assay. The results of ligand binding assay are expressed in Kd numbers.

RARγ = molecular target: T2, RARγ (Homo sapiens, UniProt P13631); experiment: ligand binding assay; conditions: last line of the stacked cell, read-out: RAR Kd γ
T2 sequence (P13631 1-454): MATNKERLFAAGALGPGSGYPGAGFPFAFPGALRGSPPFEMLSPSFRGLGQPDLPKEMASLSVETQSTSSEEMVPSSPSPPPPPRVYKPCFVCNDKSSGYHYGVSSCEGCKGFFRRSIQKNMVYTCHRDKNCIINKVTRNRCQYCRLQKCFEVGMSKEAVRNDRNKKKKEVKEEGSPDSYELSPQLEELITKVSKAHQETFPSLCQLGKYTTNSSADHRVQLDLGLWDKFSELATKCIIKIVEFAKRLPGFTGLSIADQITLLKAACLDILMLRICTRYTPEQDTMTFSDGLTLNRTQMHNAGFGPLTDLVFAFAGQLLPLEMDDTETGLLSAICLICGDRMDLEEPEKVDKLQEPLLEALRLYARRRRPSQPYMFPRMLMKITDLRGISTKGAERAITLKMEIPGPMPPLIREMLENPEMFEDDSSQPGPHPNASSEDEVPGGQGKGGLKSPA
Source text: as §1, §2

Structure (SMILES)	Cutaneous Toxicity Score (Blackjack Score) ([1]; 100 nmole (nmol/25 g))	Cutaneous Toxicity Score (Blackjack Score) ([1]; 1000 nmole (nmol/25 g))	Cutaneous Toxicity Score (Blackjack Score) ([1]; 300 nmole (nmol/25 g))	Kd (RARβ) [µM]	Kd (RARγ) [µM]
CC1(C)CCC(=O)c2ccc(C#Cc3ccc(CC(=O)O)cc3)cc21 [Compound 5, 4-[(8,8-Dimethyl-5-oxo-5,6,7,8-tetrahydro-naphthalene-2-yl-ethynyl)-phenyl]-acetic acid]	0	6 ± 3	–	–	–
CN(C1CC1)C1CCC(C)(C)c2cc(C#Cc3ccc(CC(=O)O)cc3)ccc21 (stereo not shown) [Compound 8, 4-[(5-(Cyclopropyl-methyl-amino)-8,8-dimethyl-5,6,7,8-tetrahydro-naphthalene-2-yl-ethynyl)-phenyl]-acetic acid]	5 ± 2	12 ± 1	8 ± 3	–	–
CC1(C)CCC(=O)c2ccc(C#Cc3ccc(CC(=O)O)c(F)c3)cc21 [Compound 15, [2-Fluoro-4-(8,8-dimethyl-5-oxo-5,6,7,8-tetrahydro-naphthalene-2-yl-ethynyl)phenyl]-acetic acid]	1 ± 1	5 ± 2	–	–	–
CN(C1CC1)C1CCC(C)(C)c2cc(C#Cc3ccc(CC(=O)O)c(F)c3)ccc21 (stereo not shown) [Compound 18, [4-(5-(Cyclopropyl-methyl-amino)-8,8-dimethyl-5,6,7,8-tetrahydro-naphthalene-2-yl-ethynyl)-2-fluoro-phenyl]-acetic acid]	0 ± 0	10 ± 2	5 ± 2	–	–
CC1(C)CN(C2CC2)Cc2ccc(C#Cc3ccc(CC(=O)O)c(F)c3)cc21 [Compound 22, [4-(2-Cyclopropyl-4,4-dimethyl-1,2,3,4-tetrahydro-isoquinolin-6-yl-ethynyl)-2-fluoro-phenyl]-acetic acid]	0 ± 0	1 ± 1	0 ± 0	–	–
CC1(C)CC(C)(C)c2cc(C#Cc3ccc(CC(=O)O)cc3)cc(C3CC3)c2O1 [Compound 36, [4-(8-Cyclopropyl-2,2,4,4-tetramethyl-chroman-6-yl-ethynyl)phenyl]acetic acid]	1 ± 1	11 ± 0	–	–	–
CC1(C)CC(C)(C)c2cc(C#Cc3ccc(CC(=O)O)c(F)c3)cc(C3CC3)c2O1 [Compound 38, [4-(8-Cyclopropyl-2,2,4,4-tetramethyl-chroman-6-yl-ethynyl)-2-fluorophenyl] acetic acid]	1 ± 1	10 ± 1	–	–	–
CC1(C)CC(C)(C)c2cc(C(=O)Oc3ccc(CC(=O)O)cc3)ccc2O1 [Compound 46, 2,2,4,4-Tetramethyl-chroman-6-carboxylic acid 4-(carboxymethyl)phenyl ester]	–	–	–	> 10	> 10
CC1(C)CC2(CC2)Oc2c(C3CC3)cc(C#Cc3ccc(CC(=O)O)cc3)cc21 [Compound 48, Benzeneacetic acid, 4-[(8-cyclopropyl-3,4-dihydro-4,4-dimethylspiro[2H-1-benzopyran-2,1′-cyclopropane]-6-yl)ethynyl]-]	1 ± 1	7 ± 2	3 ± 1	–	–
CC1(C)CC2(CC2)Oc2c(C3CC3)cc(C#Cc3ccc(CC(=O)O)c(F)c3)cc21 [Compound 50]	1 ± 0	8 ± 2	3 ± 2	–	–
CC1(C)CC2(CC2)Oc2c(C3CC3)cc(C(=O)Oc3ccc(CC(=O)O)cc3)cc21 [Compound 58, Spiro[2H-1-benzopyran-2,1′-cyclopropane]-6-carboxylic acid, 8-cyclopropyl-3,4-dihydro-4,4-dimethyl-, 4-(carboxymethyl)phenyl ester]	0 ± 0	0 ± 0	0 ± 0	–	–
CCCN(CCC)C1(c2ccc(C#Cc3ccc(C(=O)O)cc3)cc2)CC1 [Compound 110, 4-[4-(1-Dipropylamino-cyclopropyl)-phenylethynyl]-benzoic acid]	–	–	–	–	> 10
O=C(O)c1ccc(C#Cc2ccc(C3(N(Cc4ccccc4)Cc4ccccc4)CC3)cc2)cc1 [Compound 114, 4-[4-(1-Dibenzylamino-cyclopropyl)-phenylethynyl]-benzoic acid]	–	–	–	> 10	–
Cc1cc(C#Cc2ccc(CC(=O)O)cc2)ccc1Cn1ccnc1 [Compound 121, [4-(4-Imidazol-1-yl-methyl-3-methyl-phenylethynyl)-phenyl]-acetic acid]	–	–	–	> 100	–
CCN(Cc1ccc(C#Cc2ccc(CC(=O)O)cc2)cc1C)C1CC1 [Compound 131, (4-{4-[(Cyclopropyl-ethyl-amino)-methyl]-3-methyl-phenylethynyl}-phenyl)-acetic acid]	1 ± 1	1 ± 1	0 ± 1	–	–
CC1(C)CCC(n2ccnc2)c2ccc(C#Cc3ccc(CC(=O)O)cc3)cc21 (stereo not shown) [Compound 137, [4-(5-Imidazol-1-yl-8,8-dimethyl-5,6,7,8-tetrahydro-naphthalen-2-yl-ethynyl)-phenyl]-acetic acid]	1 ± 1	5 ± 2	1 ± 1	–	–
